Data reported in patent publication US11883383B2, “Pharmaceutically acceptable salts of [3-(4- {2-butyl-1-[4-(4-chloro-phenoxy)-phenyl]-1H-imidazol-4-yl} -phenoxy)-propyl]-diethyl-amine” (vTv Therapeutics LLC, priority 2018, dated 2024).

What was measured:
Format in all cases: physicochemical
[1] = Thermogravimetric analysis (TGA) weight loss of crystalline hits; settings: for Speculated Form: based on TGA/DSC characterization data
Description: (§1) TGA data were collected using a TA Q500 and Q550 from TA Instruments. DSC was performed using a TA Q2000 from TA Instruments. DSC was calibrated with Indium reference standard and the TGA was calibrated using nickel reference standard.
(§2) All hits were further characterized by TGA and DSC, with the stoichiometry determined by ^1H NMR or HPLC/IC. Based on the characterization data in Table 2 below, most of them were considered to be anhydrates.

[2] = Differential scanning calorimetry (DSC) endotherms of crystalline hits; settings: for DSC Endo. (onset, ° C.): onset temperature
Description: as §1, §2

[3] = Stoichiometry (acid/freebase) by 1H NMR or HPLC/IC
Source text: Solution NMR was collected on Bruker 500M NMR Spectrometer using DMSO-d6 and CD3OD as solvents.
Agilent 1100 HPLC was utilized to analyze the purity and stoichiometry, with detailed method listed in below.
IC method for counter-ion content measurement is listed below.
as §2

[4] = Storage of the solid salt at ambient conditions (physical stability / hygroscopicity)
Source text: One mesylate crystal form was obtained via screening. Mesylate Type A was generated via reactive crystallization (molar ratio of 1:1) in ethyl acetate/hexane (1:2, v/v) at RT.

Structure (SMILES)	TGA Wt. Loss (%) [1]	Speculated Form [1]	DSC Endo. (onset, ° C.) [2] [°C]	Stoichiometry (acid/base) [3]	DSC Endo., peak temperature ([2]; peak temperature (footnote *)) [°C]	Storage at ambient conditions ([4]; ambient conditions)	Hygroscopicity / stability under ambient conditions, as suggested by the gel conversion ([4]; ambient conditions, inferred from conversion to gel)	Physical stability of the sample after storage at ambient conditions ([4]; solid, storage at ambient conditions)
CCCCc1nc(-c2ccc(OCCCN(CC)CC)cc2)cn1-c1ccc(Oc2ccc(Cl)cc2)cc1.Cl [HCl salt Type A]	negligible	Anhydrate	167.0	1.33				
CCCCc1nc(-c2ccc(OCCCN(CC)CC)cc2)cn1-c1ccc(Oc2ccc(Cl)cc2)cc1.O=C(O)/C=C\C(=O)O [Maleate Type A]	negligible	Anhydrate	120.2	0.97				
CCCCc1nc(-c2ccc(OCCCN(CC)CC)cc2)cn1-c1ccc(Oc2ccc(Cl)cc2)cc1.O=C(O)CNC(=O)c1ccccc1 [Hippurate Type A]	negligible	Anhydrate	72.7	0.98	44.3			
CCCCc1nc(-c2ccc(OCCCN(CC)CC)cc2)cn1-c1ccc(Oc2ccc(Cl)cc2)cc1.O=C(O)c1cc(O)ccc1O [Gentisate Type B]	negligible	Anhydrate	122.9	1.03				
CCCCc1nc(-c2ccc(OCCCN(CC)CC)cc2)cn1-c1ccc(Oc2ccc(Cl)cc2)cc1.O=C1NS(=O)(=O)c2ccccc21 [Saccharinate Type A]	negligible	Anhydrate	120.0	1.22				
CCCCc1nc(-c2ccc(OCCCN(CC)CC)cc2)cn1-c1ccc(Oc2ccc(Cl)cc2)cc1.O=C(O)C(=O)O [Oxalate Type A]	negligible	Anhydrate	109.5	1.12				
CCCCc1nc(-c2ccc(OCCCN(CC)CC)cc2)cn1-c1ccc(Oc2ccc(Cl)cc2)cc1.CS(=O)(=O)O [Mesylate Type A]						+	highly hygroscopic and unstable	converted to gel
